Assay results published in patent publication US9115134B2, “6-triazolopyridazine sulfanyl benzothiazole derivatives as MET inhibitors” (SANOFI, priority 2007, dated 2015).

Legend:
[1] = test system: HCT116 cells, MKN45 cells; assay: Test C: Measurement of cell proliferation by 14C-thymidine pulse; assay type: cell-based; details: 14C-thymidine incorporation, 96 h of treatment; cell line not given
In short: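 HCT116 (2500/well, DMEM) and MKN45 (7500/well, RPMI), both with 10% FCS, treated after 4 h with 10 concentrations from 10 000 to 0.3 nM (3-fold, duplicate). ¹⁴C-thymidine (0.1 μCi/well) added at 72 h; incorporation read after 24 h pulse, 96 h total treatment.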

MET [2] = target: T1, MET (Homo sapiens, UniProt P08581); assay: Test A: HTRF MET assay in 96-well format; assay type: biochemical; parameters: The His-Tev-MET (956-1390) recombinant DNA in pFastBac (Invitrogen) is transfected into insect cells; His tag (N, cleaved yes); TEV cleavage site (N); made in house; host or cells: SF21 insect cells (baculovirus, pFastBac); details: MET 5 nM, 10 μM ATP
In short: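 Purified human MET cytoplasmic domain (956-1390, His tag cleaved), 5 nM, with compound (0.17 nM–10 μM, 3% DMSO) in MOPS pH 7.4; 1 μg/ml poly-(GAT), 10 μM ATP, 5 mM MgCl2, 10 min at ambient temperature. HTRF read-out (streptavidin-XL/anti-pTyr Eu cryptate, 2 h); % inhibition from 665/620 ratios.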
Target sequence in this assay (P08581 956-1390): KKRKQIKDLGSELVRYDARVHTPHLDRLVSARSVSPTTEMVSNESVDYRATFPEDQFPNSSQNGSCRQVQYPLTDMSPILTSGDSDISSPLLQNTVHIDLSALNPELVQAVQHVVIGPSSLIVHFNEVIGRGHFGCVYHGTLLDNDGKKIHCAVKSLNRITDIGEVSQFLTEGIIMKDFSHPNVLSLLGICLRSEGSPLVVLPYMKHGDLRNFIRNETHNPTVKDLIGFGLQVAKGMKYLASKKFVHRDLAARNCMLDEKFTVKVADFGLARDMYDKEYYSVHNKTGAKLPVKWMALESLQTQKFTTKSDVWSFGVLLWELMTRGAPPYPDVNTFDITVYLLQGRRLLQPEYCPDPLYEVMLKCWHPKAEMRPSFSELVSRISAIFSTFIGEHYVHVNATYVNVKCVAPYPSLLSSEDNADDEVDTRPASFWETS

MET [3] = target: T1, MET; assay: Test B: Inhibition of the autophosphorylation of MET; ELISA technique (pppY1230,1234,1235) in MKN45 cells; assay type: cell-based; parameters: Seed MKN45 cells into 96-well plates (Cell coat BD polylysine) at 20 000 cells/well; endogenous in cells; host or cells: MKN45 cells; details: 1 h treatment, PhosphoMET ELISA
In short: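 Adhered cells treated 1 h with six compound concentrations in duplicate, final 10 000 to 30 nM, against DMSO controls. Cells then lysed at 4° C for 30 min in Triton/SDS/deoxycholate buffer with phosphatase inhibitors. Phospho-MET measured by sandwich ELISA with anti-phospho MET antibody and HRP detection, absorbance at 450 nm.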
Target sequence in this assay (P08581 25-1390): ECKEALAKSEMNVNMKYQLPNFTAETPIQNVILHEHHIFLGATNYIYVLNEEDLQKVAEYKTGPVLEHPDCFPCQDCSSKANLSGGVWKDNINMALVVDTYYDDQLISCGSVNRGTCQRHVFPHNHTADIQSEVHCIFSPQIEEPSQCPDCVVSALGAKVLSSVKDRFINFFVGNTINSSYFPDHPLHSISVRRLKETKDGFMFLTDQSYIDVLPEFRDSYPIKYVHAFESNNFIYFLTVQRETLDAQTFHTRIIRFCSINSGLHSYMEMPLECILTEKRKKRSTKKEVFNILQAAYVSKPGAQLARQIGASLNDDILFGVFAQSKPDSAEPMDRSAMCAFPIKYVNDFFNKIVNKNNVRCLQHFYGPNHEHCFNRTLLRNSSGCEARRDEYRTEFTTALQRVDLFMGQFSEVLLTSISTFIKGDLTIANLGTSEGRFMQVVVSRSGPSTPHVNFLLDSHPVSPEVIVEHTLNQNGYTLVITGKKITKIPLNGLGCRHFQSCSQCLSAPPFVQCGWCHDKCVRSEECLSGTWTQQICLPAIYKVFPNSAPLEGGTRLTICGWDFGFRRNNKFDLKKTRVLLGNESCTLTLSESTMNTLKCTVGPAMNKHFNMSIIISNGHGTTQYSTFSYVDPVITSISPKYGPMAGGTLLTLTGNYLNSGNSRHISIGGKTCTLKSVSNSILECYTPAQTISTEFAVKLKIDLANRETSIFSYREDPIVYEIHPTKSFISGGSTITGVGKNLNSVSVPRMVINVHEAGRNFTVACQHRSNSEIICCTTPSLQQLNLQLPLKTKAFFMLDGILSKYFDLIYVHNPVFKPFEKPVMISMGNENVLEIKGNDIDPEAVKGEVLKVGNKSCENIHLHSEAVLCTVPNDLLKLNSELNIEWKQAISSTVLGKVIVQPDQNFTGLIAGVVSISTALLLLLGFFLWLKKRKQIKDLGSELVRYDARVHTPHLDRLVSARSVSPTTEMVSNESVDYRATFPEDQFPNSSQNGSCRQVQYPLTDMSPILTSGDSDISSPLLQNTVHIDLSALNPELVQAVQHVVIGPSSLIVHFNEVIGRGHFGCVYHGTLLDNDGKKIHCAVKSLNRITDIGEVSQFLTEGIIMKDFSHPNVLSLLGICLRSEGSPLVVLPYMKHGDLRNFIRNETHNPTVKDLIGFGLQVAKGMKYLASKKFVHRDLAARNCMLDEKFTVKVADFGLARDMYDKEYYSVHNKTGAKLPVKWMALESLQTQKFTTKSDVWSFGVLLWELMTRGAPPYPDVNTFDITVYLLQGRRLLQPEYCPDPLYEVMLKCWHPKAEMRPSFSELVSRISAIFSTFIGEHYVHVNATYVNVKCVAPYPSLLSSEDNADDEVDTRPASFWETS

CCC(C)CNc1nc2ccc(Sc3nnc4n3N=C(c3ccc(F)cc3)CC4)cc2s1 (stereo not shown) [Example 68, 6-{[6-(4-Fluorophenyl)-7,8-dihydro[1,2,4]triazolo[4,3-b]pyridazin-3-yl]sulphanyl}-N-(2-methylbutyl)-1,3-benzothiazol-2-amine]
IC50 [1]: < 10000 nM
IC50 (MET [2]): < 500 nM
IC50 (MET [3]): > 500 nM
melting point: 220 °C
